Consider one compound from BindingDB's records for patent US12084442 (Novartis, 2024).

The assay has as its target T1, G protein-activated inward rectifier potassium channel 1/4 (Homo sapiens, UniProt P48544+P48549).
T1 sequence (P48549 whole entry): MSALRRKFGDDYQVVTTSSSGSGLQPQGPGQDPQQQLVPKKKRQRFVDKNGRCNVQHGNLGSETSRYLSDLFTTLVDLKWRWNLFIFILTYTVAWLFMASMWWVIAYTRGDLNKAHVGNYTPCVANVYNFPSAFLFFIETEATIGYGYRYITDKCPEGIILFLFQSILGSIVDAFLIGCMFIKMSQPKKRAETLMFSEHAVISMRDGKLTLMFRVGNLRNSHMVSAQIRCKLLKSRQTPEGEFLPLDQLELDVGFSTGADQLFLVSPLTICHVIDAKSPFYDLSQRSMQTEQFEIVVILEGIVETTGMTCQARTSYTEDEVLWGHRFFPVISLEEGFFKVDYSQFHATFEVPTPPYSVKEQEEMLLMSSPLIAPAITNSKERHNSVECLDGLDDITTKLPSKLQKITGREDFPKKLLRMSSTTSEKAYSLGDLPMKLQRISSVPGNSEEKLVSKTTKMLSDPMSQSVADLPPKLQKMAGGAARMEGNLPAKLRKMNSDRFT
T1 sequence (P48544 whole entry): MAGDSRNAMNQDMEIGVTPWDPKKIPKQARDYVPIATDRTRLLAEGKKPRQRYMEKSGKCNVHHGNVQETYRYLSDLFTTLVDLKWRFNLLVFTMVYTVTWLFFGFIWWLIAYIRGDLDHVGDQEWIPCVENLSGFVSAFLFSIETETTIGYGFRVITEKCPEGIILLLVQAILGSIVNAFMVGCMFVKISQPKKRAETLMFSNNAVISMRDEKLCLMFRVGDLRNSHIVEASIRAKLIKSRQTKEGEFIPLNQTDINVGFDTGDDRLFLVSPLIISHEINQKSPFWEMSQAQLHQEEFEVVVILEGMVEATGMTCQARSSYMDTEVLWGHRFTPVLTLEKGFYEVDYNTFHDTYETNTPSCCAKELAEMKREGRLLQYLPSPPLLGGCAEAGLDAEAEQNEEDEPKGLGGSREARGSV
Briefly: GIRK1/4 Activity Assay. As for the experimental part:
The GIRK1/4 activity of a compound according to the present invention was assessed by the following in vitro method.Buffers:a. External buffer: 10 mM NaCl, 50 mM Na Gluconate, 80 mM K Gluconate, 1.8 mM CaCl2, 1 mM MgCl2, 10 mM HEPES, 10 mM Glucose, pH 7.4; osmolarity 300-310 […].b. Internal buffer: 30 mM KCl, 100 mM K Gluconate, 1 mM MgCl2, 10 mM HEPES, 1 mM EGTA, 10 mM NaCl, pH 7.2; osmolarity […].Compounds:c. Prepare seven-fold compound dilution series (10 mM to 20 uM) in 100% DMSO, in 384-well polypropylene plates.d. Propafenone (Sigma Aldrich, catalog number P4670) was used as a positive control and DMSO for neutral controle. Resuspend 1 μl of compounds in DMSO into 66.7 μl external buffer in 384-well polypropylene plate and load into Plate 1 section of Molecular Devices Quattro Quattro Setup:f. Load 384-well Population Patch Plate (Molecular Devices #9000-0902) into Quattrog. Fill Quattro F-soak trough with 20% DMSO and 50% EtOHh. Fill Quattro buffer trough with external bufferi. Attach internal buffer flask to Quattro internal buffer tubingj. Attach PBS (Phosphate Buffered Saline, minus Ca++ and Mg++, pH7.4) bottle to F-head & E-head wash on QuattroAntibiotic:k. […] Measured magnitude of inward potassium current at time point between 1200-1220 ms from start of Pulse 1 (i.e., during the voltage ramp phase).t. […]

Usually IC50 stands for the point on the concentration scale where inhibition reaches its midpoint.

`Cc1cc(=O)c2c(OCCC(N)=O)ncc(Cl)c2n1-c1c(Cl)cc(OCCO)cc1Cl` [US12084442, Example 18] yielded an IC50 of 30 nM.
